Reference: PMC2613973 (Insect biochemistry and molecular biology, 2008)

Tests used:
Assay in all cases: Isothermal titration calorimetry
Format in all cases: binding
Moubatin = Moubatin (Ornithodoros moubata, UniProt Q04669)
TSGP2 = biological target: T1, TSGP2 (Ornithodoros kalahariensis, UniProt Q8I9U1)
T1 sequence (Q8I9U1 20-163): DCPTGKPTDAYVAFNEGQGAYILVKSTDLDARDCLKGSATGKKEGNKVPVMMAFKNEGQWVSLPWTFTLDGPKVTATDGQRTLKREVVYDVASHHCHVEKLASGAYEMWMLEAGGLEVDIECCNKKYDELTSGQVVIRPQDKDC

TSGP3 = biological target: T2, TSGP3 (Ornithodoros kalahariensis, UniProt Q8I9U0)
T2 sequence (Q8I9U0 20-163): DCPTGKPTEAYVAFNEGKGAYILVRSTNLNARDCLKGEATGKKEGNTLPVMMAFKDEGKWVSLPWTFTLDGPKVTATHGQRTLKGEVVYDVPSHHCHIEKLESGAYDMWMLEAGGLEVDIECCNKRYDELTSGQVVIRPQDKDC

Moubatin-like 3 = biological target: T3, Moubatin-like 3 (Ornithodoros parkeri, UniProt A6N9T1)
T3 sequence (A6N9T1 20-176): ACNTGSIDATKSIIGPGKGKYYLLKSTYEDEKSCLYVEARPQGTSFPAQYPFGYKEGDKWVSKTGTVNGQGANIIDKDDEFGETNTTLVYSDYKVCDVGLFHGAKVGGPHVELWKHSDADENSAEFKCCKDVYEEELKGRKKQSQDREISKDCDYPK

TSGP2_R85G = TSGP2_R85G (Ornithodoros kalahariensis, UniProt Q8I9U1, R104G)
TSGP3_G85R = TSGP3_G85R (Ornithodoros kalahariensis, UniProt Q8I9U0, G104R)
T2_ML = T2_ML (Ornithodoros kalahariensis, UniProt Q8I9U1, A132G/E131N/E136D/G133S/G134A/L130S/L135D/M127Q/M129Q/V137K)
T2_M4 = T2_M4 (Ornithodoros kalahariensis, UniProt Q8I9U1, K92N/T101K/T85M/T94V)
T2_H95D = T2_H95D (Ornithodoros kalahariensis, UniProt Q8I9U1, H114D)

Compound	Kd (Moubatin) [nM]	Kd (TSGP2) [nM]	Kd (TSGP3) [nM]	Kd (Moubatin-like 3) [nM]	Kd (TSGP2_R85G) [nM]	further results
CCCCC/C=C\C/C=C\C/C=C\C/C=C\CCCC(=O)O [Arachidonic acid, arachidonic acid (AA)]	34 ± 6	69 ± 7	59 ± 24	–	–	–
NCCc1c[nH]cn1 [Histamine, histamine]	–	–	–	106 ± 3	–	–
CCCCC/C=C\C[C@@H](O)/C=C/C=C/C=C\[C@@H](O)CCCC(=O)O [LTB4, leukotriene B4]	16 ± 3	18 ± 3	21 ± 5	–	10 ± 1.6	Kd (TSGP3_G85R): 228 ± 36 nM; Kd (T2_ML): 12 ± 2 nM; Kd (T2_M4): 6 ± 0.8 nM; Kd (T2_H95D): 12 ± 2 nM
NCCc1c[nH]c2ccc(O)cc12 [Serotonin, serotonin (5-hydroxytryptamine, 5-HT)]	–	–	–	116 ± 13	–	–
CCCCC[C@H](O)/C=C/[C@@H]1[C@@H](C/C=C\CCCC(=O)O)[C@H]2CO[C@@H]1C2 [U46619, 9,11-dideoxy-9α,11α-methanoepoxy prostaglandin F2α (stable thromboxane A2 analog)]	20 ± 3	–	9 ± 1	–	7 ± 1	–
CCCCC[C@H](O)/C=C/C1CC2CC(C2)C1C/C=C\CCCC(=O)O (stereo partly drawn) [cTXA2, carbocyclic thromboxane A2]	24 ± 4	–	5 ± 0.7	–	–	–
